# From patent US6815208B2, “Chemical treatment for hydrostatic test” (Champion Technologies, Inc., priority 2001, dated 2004)
# Read-outs that look alike come from different tables or passages of the source.
# Legend:
# [1] = system: sulfate reducting bacteria (SRB); experiment: Time kill study of SRB cultures at raised pH (NaOH), serial dilution; type: cell-based; conditions: 200 PPM, combined with high pH
# Protocol: Cultures (in API media) of sulfate reducting bacteria (SRB) and facultative anaerobic acid producing bacteria (FAAPB) were treated separately with dilute NaOH solution to raise the pH of the culture to 9.8-10.00. The level of bacterial growth was estimated by the serial dilution method. In some experiments oxygen scavenger (ammonium bisulfite) was also included to see if it has any effect on bacterial growth. No coupons were used in these experiments.
# (§1) In these experiments, SRB or FAAPB cultures were treated with various concentrations of biocides, after raising the pH to 9.8-10.00. The bacterial growth in the treated samples was estimated by the serial dilution method. The visual appearance of coupons in treated and untreated samples was recorded. An aldehyde and phosphonium quat were used for biocides.
# [2] = system: anaerobic bacteria; experiment: Time kill study of special blends, anaerobic bacteria culture; type: cell-based; conditions: 50 PPM (pH ~7)
# Protocol: (§2) More than thirty special blends containing NaOH, oxygen scavenger and scale inhibitor were made. Time kill studies were conducted to evaluate the effect of these special blends on bacterial growth. For the time kill studies cultures of SRB and anaerobic bacteria as well as filtered Galveston seawater were used. Galveston seawater was filtered through 50 μm filter. The time kill studies were basically the same as in the raised pH studies described earlier. The only difference was that in these studies, the pH was raised by the special blends and natural seawater was included in addition to bacterial cultures. Usually, 1,500 to 3,000 PPM of the special blends were used to raise the pH to 9.6-9.8. In some experiments, the seawater was treated only with NaOH or oxygen scavenger for comparison purposes. A piece of mild carbon steel coupon (1″×0.3″) was inserted into the treated water to monitor MIC and corrosion in all of the experiments.
# (§3) The bacterial growth was monitored for 20 days. The monitoring of coupons in the treated samples continued for weeks to months. The products that inhibited the bacterial growth and kept the coupons clean were selected. These selected products were re-evaluated using the bacterial cultures and the filtered seawater.
# [3] = system: SRB; experiment: Time kill study of special blends, SRB culture; type: cell-based; conditions: 50 PPM (pH ~7)
# Protocol: as §2, §3
# [4] = Deactivation of biocides / biocide residual in Galveston seawater; type: physicochemical
# Protocol: The pH of fresh water or seawater was adjusted and desired concentrations of biocides were added. The concentration of biocides in the water was measured periodically. Such monitoring provided information on the deactivation rate of biocides. To monitor the concentration of THPS and glutaraldehyde a LaMotte kit and a Glutatect kit were used, respectively. The LaMotte Company supplies the LaMotte kit. Alden Scientific manufactures the Glutatect kit. After the complete deactivation of biocide, the water was tested for aquatic toxicity.
# Galveston seawater was treated with NaOH solution and with blends of NaOH and chemicals separately to raise the pH to 9-10.25. 12-100 PPM of 50% glutaraldehyde was added to each aliquot of pH-adjusted water. The treated water was left at room temperature. The concentration of glutaraldehyde was monitored for 9-20 days, using Glutatect kit. In another experiment, 100 PPM of 75% THPS was added to Galveston seawater following pH adjustment with NaOH. THPS concentration was monitored using a LaMotte Kit.
# [5] = anaerobic condition, cited from earlier work
# [6] = system: M. Beryllina; experiment: Static renewal toxicity test of treated seawater; type: in vivo; conditions: 150 PPM of THPS
# Protocol: (§4) Three of the most promising special blends were tested 249C, 246C, and 283C. Galveston seawater was treated separately with 249C, 246C and 283C at 3,000 PPM, 2,000 PPM and 1,450 PPM respectively. The treated water was then subjected to a static renewal toxicity test (using Mysid and Menidid species). The EPA requires this toxicity test for water discharged into the Gulf of Mexico.
# [7] = system: M. Bahia; experiment: Static renewal toxicity test of treated seawater; type: in vivo; conditions: 150 PPM of THPS
# Protocol: as §4
# [8] = system: SRB; experiment: Effect of special blends on SRB growth in natural (Galveston) seawater; type: cell-based; conditions: 25 PPM
# Protocol: as §2, §3
# [9] = system: Sulfate Reducing Bacteria (SRB); experiment: Evaluation of biocides in pH adjusted medium containing SRB, with coupons; type: cell-based; conditions: for Log of Bacterial Cells/ml: SRB medium
# Protocol: as §1
# [10] = Sea Water without pH adjustment, 100 PPM added
Compound,"Log of Bacterial Cells/ml, Anaerobic [2]","Log of Bacterial Cells/ml, SRB [3]","PPM Biocide after 9 Days ([4]; Sea Water pH 10, 100 PPM added)","PPM Biocide at 0 Hr ([4]; Sea Water pH 10, 100 PPM added)","PPM Biocide, 2 Days ([4]; Sea Water pH 10, 100 PPM added)","PPM Biocide after 9 Days [4, 10]","PPM Biocide at 0 Hr [4, 10]","PPM Biocide, 2 Days [4, 10]",Log of Bacterial Cells/ml [8],further results
"N.O=S(O)O [NH4HSO3, ammonium bisulfite]",–,–,–,–,–,–,–,–,–,Log of SRB Cells/mL ([1]; Experiment 1 (7 Days)): 2 Log of SRB Cells/mL; Log of SRB Cells/mL ([1]; Experiment 2 (7 Days)): 2 Log of SRB Cells/mL
tetrakis hydroxymethyl phosphonium sulfate [THPS],≧3 Log of Bacterial Cells/ml,0-1 Log of Bacterial Cells/ml,14 PPM,136 PPM,58 PPM,68 PPM,132 PPM,104 PPM,1 Log of Bacterial Cells/ml,half life ([5]; pH 7): 72 days; half life ([5]; pH 9): 7 days; LOEC [6]: 24.6%; NOEC [6]: 12.0%; LOEC [7]: <9.6/9.6%; NOEC [7]: <9.6/9.6%; Log of Bacterial Cells/ml ([9]; Concentration 18.75): 0-3 Log of Bacterial Cells/ml; Log of Bacterial Cells/ml ([9]; Concentration 37.5): 0-1 Log of Bacterial Cells/ml; Log of Bacterial Cells/ml ([9]; Concentration 112.5): 0 Log of Bacterial Cells/ml
"O=CCCCC=O [Glutaraldehyde, glutaraldehyde]",≧3 Log of Bacterial Cells/ml,0-1 Log of Bacterial Cells/ml,10-20 PPM,˜40 PPM,20-40 PPM,20-40 PPM,˜40 PPM,20-40 PPM,1 Log of Bacterial Cells/ml,"biocide residual ([4]; seawater treated with special blends, after 5-10 days): below 5 PPM; Log of Bacterial Cells/ml ([9]; Concentration 12.5): 0 Log of Bacterial Cells/ml; Log of Bacterial Cells/ml ([9]; Concentration 25): 0-1 Log of Bacterial Cells/ml; Log of Bacterial Cells/ml ([9]; Concentration 75): 0 Log of Bacterial Cells/ml; Log of Bacterial Cells/ml ([9]; Concentration 150): 0 Log of Bacterial Cells/ml; concentration sufficient to inhibit planktonic as well as sessile bacterial growths ([9]; water with pH adjusted to 10): 10-12 PPM"
